Assay results published in ChEMBL document CHEMBL5465560, “Selectivity Literature for EUbOPEN Chemogenomic Library” (2024).

Key:
[1] = biological target: Macrophage colony-stimulating factor 1 receptor (Homo sapiens) (UniProt P07333); experiment: Selectivity interaction (KinomeScan (DiscoverX)) EUB0000229b CSF1R; conditions: at 10 µM
[2] = biological target: T1, Mitogen-activated protein kinase kinase kinase kinase 3 (Homo sapiens) (UniProt Q8IVH8); experiment: Selectivity interaction (KinomeScan (DiscoverX)) EUB0000045b MAP4K3
T1 sequence (whole entry): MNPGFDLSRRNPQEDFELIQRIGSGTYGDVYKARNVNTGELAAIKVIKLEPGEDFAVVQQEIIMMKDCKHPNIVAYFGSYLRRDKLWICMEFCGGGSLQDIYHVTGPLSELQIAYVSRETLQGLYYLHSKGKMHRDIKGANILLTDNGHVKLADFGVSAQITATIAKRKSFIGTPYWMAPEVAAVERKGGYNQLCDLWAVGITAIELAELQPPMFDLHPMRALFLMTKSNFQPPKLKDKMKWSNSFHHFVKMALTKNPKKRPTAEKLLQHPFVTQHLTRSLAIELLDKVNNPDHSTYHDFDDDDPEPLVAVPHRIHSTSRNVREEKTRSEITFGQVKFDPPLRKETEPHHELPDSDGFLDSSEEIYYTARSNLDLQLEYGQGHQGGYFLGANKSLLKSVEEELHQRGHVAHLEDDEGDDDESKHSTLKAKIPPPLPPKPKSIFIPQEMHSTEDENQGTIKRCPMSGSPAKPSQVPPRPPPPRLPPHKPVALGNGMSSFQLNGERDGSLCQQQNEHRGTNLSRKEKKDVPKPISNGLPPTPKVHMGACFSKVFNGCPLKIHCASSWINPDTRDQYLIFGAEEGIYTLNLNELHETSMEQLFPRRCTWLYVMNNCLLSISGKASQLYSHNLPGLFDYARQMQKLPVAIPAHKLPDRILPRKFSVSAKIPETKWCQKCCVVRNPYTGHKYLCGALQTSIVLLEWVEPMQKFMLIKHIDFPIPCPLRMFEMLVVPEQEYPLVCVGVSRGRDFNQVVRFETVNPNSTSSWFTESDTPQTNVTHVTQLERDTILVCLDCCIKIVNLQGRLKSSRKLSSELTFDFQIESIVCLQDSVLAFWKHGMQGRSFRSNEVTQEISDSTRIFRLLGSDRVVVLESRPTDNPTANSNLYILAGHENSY

[3] = biological target: Serine/threonine-protein kinase 38 (Homo sapiens) (UniProt Q15208); experiment: Selectivity interaction (KinomeScan (DiscoverX)) EUB0000045b STK38
Serine/threonine-protein kinase 38 (Homo sapiens), sequence (Q15208 2-465 limits assumed): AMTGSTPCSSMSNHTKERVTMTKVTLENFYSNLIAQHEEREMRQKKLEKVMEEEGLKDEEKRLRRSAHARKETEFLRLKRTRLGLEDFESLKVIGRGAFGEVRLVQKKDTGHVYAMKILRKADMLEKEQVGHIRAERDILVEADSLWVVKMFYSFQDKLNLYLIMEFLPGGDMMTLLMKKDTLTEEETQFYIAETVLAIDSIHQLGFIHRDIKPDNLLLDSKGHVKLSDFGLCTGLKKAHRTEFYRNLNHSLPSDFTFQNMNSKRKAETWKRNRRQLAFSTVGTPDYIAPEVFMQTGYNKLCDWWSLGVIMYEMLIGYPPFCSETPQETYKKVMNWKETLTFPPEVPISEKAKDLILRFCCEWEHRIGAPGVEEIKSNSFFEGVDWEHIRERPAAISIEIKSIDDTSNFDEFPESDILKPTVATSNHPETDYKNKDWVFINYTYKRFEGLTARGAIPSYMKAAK

[4] = biological target: Calcium/calmodulin-dependent protein kinase type II subunit beta (Homo sapiens) (UniProt Q13554); experiment: Selectivity interaction (KinomeScan (DiscoverX)) EUB0001079a CAMK2B; conditions: at 1 µM
Calcium/calmodulin-dependent protein kinase type II subunit beta (Homo sapiens), sequence (Q13554 whole entry): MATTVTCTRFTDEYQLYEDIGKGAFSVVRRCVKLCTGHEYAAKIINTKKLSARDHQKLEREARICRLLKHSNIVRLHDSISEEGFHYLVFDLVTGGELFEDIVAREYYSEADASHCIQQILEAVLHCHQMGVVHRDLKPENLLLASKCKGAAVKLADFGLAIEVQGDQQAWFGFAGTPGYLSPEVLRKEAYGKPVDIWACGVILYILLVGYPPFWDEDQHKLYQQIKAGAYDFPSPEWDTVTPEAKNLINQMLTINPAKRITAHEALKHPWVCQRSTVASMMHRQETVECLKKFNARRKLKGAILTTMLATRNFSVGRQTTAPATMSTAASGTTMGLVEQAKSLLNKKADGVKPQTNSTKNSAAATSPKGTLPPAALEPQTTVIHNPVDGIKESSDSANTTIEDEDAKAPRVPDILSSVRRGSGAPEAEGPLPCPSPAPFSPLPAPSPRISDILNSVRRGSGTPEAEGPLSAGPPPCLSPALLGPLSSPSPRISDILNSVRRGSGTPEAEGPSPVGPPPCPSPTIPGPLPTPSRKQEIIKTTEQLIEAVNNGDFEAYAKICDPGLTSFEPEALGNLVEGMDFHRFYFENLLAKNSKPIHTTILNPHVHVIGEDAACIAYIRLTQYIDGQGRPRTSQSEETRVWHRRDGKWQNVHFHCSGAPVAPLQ

[5] = Selectivity interaction (Eurofins CEREP Diversity Profile (receptors and ion channels)) EUB0000279b NPY; conditions: at 10 µM
[6] = biological target: Serine/threonine-protein kinase Nek7 (Homo sapiens) (UniProt Q8TDX7); experiment: Selectivity interaction (SelectScreen profiling (Invitrogen)) EUB0000607a NEK7; conditions: at 2 µM
Serine/threonine-protein kinase Nek7 (Homo sapiens), sequence (Q8TDX7 whole entry, looked up): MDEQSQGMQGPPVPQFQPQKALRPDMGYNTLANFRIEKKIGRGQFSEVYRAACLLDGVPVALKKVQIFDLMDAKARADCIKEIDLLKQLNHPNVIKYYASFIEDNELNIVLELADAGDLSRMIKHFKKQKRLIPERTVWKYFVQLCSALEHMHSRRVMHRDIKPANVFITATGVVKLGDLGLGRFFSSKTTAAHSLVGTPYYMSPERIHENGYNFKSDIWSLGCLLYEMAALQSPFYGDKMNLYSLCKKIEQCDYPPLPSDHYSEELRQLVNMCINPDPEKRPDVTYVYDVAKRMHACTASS

[7] = biological target: Ribosomal protein S6 kinase alpha-4 (Homo sapiens) (UniProt O75676); experiment: Selectivity interaction (KinomeScan (DiscoverX)) EUB0000607a RPS6KA4; conditions: at 10 µM
Ribosomal protein S6 kinase alpha-4 (Homo sapiens), sequence (O75676 whole entry, looked up): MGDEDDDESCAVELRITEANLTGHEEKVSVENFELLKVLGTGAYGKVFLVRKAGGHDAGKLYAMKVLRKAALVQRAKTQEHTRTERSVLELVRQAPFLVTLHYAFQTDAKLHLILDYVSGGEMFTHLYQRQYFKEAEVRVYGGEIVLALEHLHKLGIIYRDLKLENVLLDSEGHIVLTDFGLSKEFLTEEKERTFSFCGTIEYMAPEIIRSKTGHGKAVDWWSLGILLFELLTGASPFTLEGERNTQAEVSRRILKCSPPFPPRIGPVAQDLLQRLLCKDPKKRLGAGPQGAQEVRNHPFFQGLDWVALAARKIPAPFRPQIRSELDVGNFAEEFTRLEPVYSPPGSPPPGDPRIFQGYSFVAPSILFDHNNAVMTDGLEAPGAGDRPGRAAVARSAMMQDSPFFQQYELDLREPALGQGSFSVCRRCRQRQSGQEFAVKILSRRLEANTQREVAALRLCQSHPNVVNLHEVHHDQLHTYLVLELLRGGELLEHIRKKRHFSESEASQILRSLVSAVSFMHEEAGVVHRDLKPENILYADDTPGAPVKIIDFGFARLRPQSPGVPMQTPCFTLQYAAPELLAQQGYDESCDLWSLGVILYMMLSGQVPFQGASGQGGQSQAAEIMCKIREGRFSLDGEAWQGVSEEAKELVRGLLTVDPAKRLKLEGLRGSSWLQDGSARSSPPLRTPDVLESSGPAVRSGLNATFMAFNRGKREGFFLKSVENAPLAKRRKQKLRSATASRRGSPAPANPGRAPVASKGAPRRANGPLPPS

[8] = biological target: T2, Ephrin type-A receptor 8 (Homo sapiens) (UniProt P29322); experiment: Selectivity interaction (KinomeScan (DiscoverX)) EUB0000618a EPHA8; conditions: at 10 µM
T2 sequence (whole entry): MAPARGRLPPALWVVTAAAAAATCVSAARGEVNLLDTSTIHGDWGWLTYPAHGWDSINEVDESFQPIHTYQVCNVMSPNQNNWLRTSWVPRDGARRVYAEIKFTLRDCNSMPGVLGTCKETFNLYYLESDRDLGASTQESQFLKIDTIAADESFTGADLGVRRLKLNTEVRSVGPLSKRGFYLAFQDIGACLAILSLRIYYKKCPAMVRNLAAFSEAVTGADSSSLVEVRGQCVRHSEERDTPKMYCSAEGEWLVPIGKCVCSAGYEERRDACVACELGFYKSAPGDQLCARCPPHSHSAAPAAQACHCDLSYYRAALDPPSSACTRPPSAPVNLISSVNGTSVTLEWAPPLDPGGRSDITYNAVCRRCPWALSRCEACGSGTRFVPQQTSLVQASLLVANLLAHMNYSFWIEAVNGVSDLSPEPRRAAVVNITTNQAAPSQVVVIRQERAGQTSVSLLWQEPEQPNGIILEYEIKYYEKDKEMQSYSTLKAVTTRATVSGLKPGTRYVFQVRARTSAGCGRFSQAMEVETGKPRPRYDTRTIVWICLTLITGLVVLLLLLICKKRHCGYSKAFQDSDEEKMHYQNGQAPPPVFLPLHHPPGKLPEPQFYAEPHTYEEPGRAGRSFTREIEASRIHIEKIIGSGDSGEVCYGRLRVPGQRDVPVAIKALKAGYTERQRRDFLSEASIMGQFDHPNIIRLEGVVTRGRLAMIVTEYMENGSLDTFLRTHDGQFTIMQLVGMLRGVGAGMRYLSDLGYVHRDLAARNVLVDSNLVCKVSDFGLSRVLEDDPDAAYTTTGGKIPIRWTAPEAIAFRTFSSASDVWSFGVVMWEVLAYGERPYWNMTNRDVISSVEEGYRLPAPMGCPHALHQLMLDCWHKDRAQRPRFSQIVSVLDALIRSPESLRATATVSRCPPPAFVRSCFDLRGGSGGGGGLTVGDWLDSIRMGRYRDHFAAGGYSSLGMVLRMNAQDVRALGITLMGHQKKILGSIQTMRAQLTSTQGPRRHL

[9] = biological target: DNA-dependent protein kinase catalytic subunit (Homo sapiens) (UniProt P78527); experiment: Selectivity interaction (ActivX KiNativ screen (kinase selectivity in THP-1 cell lysates)) EUB0000639a PRKDC; type: subcellular; conditions: lysate, at 0.2 µM
[10] = biological target: T3, Dual specificity mitogen-activated protein kinase kinase 3 (Homo sapiens) (UniProt P46734); experiment: Selectivity interaction (ActivX KiNativ screen (kinase selectivity in THP-1 cell lysates)) EUB0000639a MAP2K3; type: subcellular; conditions: lysate, at 0.2 µM
T3 sequence (whole entry): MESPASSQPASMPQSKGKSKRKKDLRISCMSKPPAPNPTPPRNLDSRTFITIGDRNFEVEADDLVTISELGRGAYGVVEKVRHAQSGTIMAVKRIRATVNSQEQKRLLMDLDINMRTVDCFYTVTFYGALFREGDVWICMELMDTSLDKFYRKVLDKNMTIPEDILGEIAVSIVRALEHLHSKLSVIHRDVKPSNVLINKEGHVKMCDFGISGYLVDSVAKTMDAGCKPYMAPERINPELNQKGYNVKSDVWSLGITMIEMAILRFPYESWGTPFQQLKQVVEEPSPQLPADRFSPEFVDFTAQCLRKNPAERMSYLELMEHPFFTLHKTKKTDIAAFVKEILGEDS

[11] = biological target: Phosphatidylinositol 4,5-bisphosphate 3-kinase catalytic subunit alpha isoform (Homo sapiens) (UniProt P42336); experiment: Selectivity interaction (Kinase panel (Invitrogen)) EUB0000639a PIK3CA; conditions: at 200 nM
Phosphatidylinositol 4,5-bisphosphate 3-kinase catalytic subunit alpha isoform (Homo sapiens), sequence (P42336 whole entry, canonical isoform): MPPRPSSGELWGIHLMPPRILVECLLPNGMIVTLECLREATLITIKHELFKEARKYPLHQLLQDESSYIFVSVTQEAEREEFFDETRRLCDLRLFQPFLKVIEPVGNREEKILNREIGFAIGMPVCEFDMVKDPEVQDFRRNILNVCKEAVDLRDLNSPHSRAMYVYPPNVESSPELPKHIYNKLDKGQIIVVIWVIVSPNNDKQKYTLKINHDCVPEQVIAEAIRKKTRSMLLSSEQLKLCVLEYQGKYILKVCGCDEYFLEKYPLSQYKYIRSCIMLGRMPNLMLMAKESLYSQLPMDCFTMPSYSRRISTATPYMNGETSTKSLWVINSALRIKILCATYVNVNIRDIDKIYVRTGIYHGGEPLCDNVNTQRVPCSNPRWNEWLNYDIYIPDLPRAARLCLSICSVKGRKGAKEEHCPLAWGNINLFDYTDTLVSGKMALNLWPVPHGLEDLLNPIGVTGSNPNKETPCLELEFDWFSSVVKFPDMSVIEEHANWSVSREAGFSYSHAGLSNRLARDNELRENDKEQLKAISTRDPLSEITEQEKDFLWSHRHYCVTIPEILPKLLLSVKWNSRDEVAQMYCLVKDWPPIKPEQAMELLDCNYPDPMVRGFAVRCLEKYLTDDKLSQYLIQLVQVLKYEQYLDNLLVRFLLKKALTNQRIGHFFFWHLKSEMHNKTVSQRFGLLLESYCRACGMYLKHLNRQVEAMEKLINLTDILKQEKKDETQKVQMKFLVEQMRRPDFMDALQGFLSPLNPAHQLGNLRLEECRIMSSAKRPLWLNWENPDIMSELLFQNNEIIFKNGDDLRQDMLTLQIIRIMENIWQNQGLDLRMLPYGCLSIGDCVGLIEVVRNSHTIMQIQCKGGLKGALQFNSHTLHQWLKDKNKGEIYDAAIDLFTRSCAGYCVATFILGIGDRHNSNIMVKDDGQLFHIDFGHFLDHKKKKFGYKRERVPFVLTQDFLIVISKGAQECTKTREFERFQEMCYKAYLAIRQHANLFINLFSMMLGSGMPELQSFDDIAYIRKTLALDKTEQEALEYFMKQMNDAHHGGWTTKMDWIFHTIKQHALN

Macrophage colony-stimulating factor 1 receptor (Homo sapiens), sequence (P07333 whole entry): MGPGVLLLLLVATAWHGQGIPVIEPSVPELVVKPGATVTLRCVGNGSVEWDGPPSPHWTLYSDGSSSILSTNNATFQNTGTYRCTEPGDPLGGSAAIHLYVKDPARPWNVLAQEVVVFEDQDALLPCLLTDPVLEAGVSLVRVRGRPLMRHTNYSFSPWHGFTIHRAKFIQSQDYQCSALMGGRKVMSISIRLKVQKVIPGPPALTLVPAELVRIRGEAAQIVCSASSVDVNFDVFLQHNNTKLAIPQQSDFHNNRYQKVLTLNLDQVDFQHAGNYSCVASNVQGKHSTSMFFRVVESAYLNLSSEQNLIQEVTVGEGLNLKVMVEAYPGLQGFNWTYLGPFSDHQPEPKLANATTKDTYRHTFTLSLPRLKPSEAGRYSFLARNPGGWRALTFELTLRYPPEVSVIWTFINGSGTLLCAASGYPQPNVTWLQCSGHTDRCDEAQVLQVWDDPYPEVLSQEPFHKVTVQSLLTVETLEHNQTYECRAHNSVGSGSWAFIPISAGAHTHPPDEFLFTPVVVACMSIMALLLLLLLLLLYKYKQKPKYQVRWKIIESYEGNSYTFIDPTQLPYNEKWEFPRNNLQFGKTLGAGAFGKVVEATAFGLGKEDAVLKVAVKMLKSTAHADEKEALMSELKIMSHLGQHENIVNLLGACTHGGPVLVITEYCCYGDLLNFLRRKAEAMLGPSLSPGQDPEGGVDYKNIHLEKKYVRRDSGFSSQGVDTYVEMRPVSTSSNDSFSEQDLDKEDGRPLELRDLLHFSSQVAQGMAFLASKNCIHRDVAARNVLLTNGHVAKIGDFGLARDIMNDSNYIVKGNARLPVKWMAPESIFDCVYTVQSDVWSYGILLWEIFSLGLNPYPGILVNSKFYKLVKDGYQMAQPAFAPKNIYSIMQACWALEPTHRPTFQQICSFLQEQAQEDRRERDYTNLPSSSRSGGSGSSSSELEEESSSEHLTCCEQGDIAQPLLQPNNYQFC

COc1cc(N(C)c2ccnc3ccc(C(F)(F)F)cc23)cc(OC)c1OC
% binding [1]: 96%

C=CC(=O)Nc1cc(-n2c(=O)ccc3cnc4ccc(-c5ccc(NS(C)(=O)=O)cc5)cc4c32)ccc1C
% of control ([2]; at 1 µM): 100% | % of control ([2]; at 10 µM): 100% | % of control ([3]; at 1 µM): 100% | % of control ([3]; at 10 µM): 100%

Nc1cnc(N2CCc3cc(S(=O)(=O)Nc4c(F)cc(Cl)cc4F)cc(N4CCCC4=O)c32)nc1 [TP-020n]
% of control [4]: 100%

CC(=O)c1cc(-c2ccccc2OCC2CC2)c2ncccn12
% of control [5]: 123%

CNC(=O)Nc1ccc(-c2nc(N3CC4CCC(C3)O4)c3cnn(C4CCC5(CC4)OCCO5)c3n2)cc1
% of inhibition [6]: -3% | % of control [7]: 90%

O[C@H]1CC[C@H](Nc2ncc3nc(Nc4c(F)cc(F)cc4F)n([C@H]4CCOC4)c3n2)CC1
% of control [8]: 72%

CC[C@@H]1[C@H](F)C(=O)N[C@@H]1COc1nccc2cc(C(N)=O)c(OC)cc12 [ZIMLOVISERTIB]
% of inhibition [9]: -5.7% | % of inhibition [10]: -70.7% | % of inhibition [11]: 5.29%
